Data as given in ChEMBL document CHEMBL4350974, “Synthesis and biological evaluation of methylpyrimidine-fused tricyclic diterpene analogs as novel oral anti-late-onset hypogonadism agents” (Eur J Med Chem, 2019).
Activity calls are given as the source filed them. The calls are words filed in the database; no cut-off is given here.

Columns and labels:
Rattus norvegicus [1] = assay: Anti late-onset hypogonadism activity in cyclophosphamide-induced Sprague-Dawley rat model of partial androgen deficiency assessed as intratesticular testosterone level at 100 mg/kg, po qd administered for 4 weeks by ELISA (reference value: 137.99 +/- 19.27 nmol/L); type: functional
Rattus norvegicus [2] = assay: Anti late-onset hypogonadism activity in cyclophosphamide-induced Sprague-Dawley rat model of partial androgen deficiency assessed as intratesticular testosterone level at 50 mg/kg, po qd administered for 4 weeks by ELISA (reference value: 137.99 +/- 19.27 nmol/L); type: functional
[3] = Half-life in Sprague-Dawley rat plasma at 50 mg/kg, po up to 12 hrs by LC/MS analysis; type: ADME, organism-based
[4] = Toxicity in cyclophosphamide - induced Sprague-Dawley rat model of partial androgen deficiency assessed as effect on Sertoli cells arrangement at 50 to 100 mg/kg by HE staining based histopathological analysis; type: organism-based; settings: in vivo
Rattus norvegicus [5] = assay: Anti late-onset hypogonadism activity in cyclophosphamide-induced Sprague-Dawley rat model of partial androgen deficiency assessed as increase in free testosterone level at 50 to 100 mg/kg, po qd administered for 4 weeks and measured every 2 weeks by ELISA; type: functional, organism-based
Rattus norvegicus [6] = assay: Anti late-onset hypogonadism activity in cyclophosphamide-induced Sprague-Dawley rat model of partial androgen deficiency assessed as inhibition of Leydig cells apoptosis at 50 to 100 mg/kg, po qd administered for 4 weeks by DAPI staining based TUNEL assay; type: functional, organism-based
[7] = Toxicity in cyclophosphamide-induced Sprague-Dawley rat model of partial androgen deficiency assessed as decrease in body weight at 50 to 100 mg/kg, po qd administered for 4 weeks and measured every 3 days; type: organism-based; settings: in vivo
Rattus norvegicus [8] = species on record: Rattus norvegicus; assay: Anti late-onset hypogonadism activity in cyclophosphamide-induced Sprague-Dawley rat model of partial androgen deficiency assessed as prevention of testicular atrophy; type: functional, organism-based
Rattus norvegicus [9] = assay: Anti late-onset hypogonadism activity in cyclophosphamide-induced Sprague-Dawley rat model of partial androgen deficiency assessed as weight of seminal vesicles at 100 mg/kg, po qd administered for 4 weeks (reference value: 1.33 +/- 0.26 g); type: functional
Rattus norvegicus [10] = assay: Anti late-onset hypogonadism activity in cyclophosphamide-induced Sprague-Dawley rat model of partial androgen deficiency assessed as weight of seminal vesicles at 50 mg/kg, po qd administered for 4 weeks (reference value: 1.33 +/- 0.26 g); type: functional
Rattus norvegicus [11] = assay: Anti late-onset hypogonadism activity in cyclophosphamide-induced Sprague-Dawley rat model of partial androgen deficiency assessed as weight of testis at 50 mg/kg, po qd administered for 4 weeks (reference value: 1.47 +/- 0.13 g); type: functional
TM3 [12] = assay: Induction of autophagy in mouse TM3 cells assessed as phosphorylation of AMPK at 10 to 100 uM by Western blot analysis; type: functional, cell-based
TM3 [13] = assay: Induction of autophagy in mouse TM3 cells assessed as dephosphorylation of mTOR at 10 to 100 uM by Western blot analysis; type: functional, cell-based
TM3 [14] = assay: Induction of autophagy in mouse TM3 cells assessed as increase in ATG5 protein level at 10 to 100 uM by Western blot analysis; type: functional, cell-based
[15] = AUC (0 to t) in Sprague-Dawley rat plasma at 50 mg/kg, po up to 12 hrs by LC/MS analysis; type: ADME, organism-based; design: dose 50 mg/kg, time < 12 hr, route oral
TM3 [16] = assay: Induction of testosterone production in mouse TM3 cells assessed as increase in testosterone level at 20 uM measured after 24 hrs by ELISA relative to control; type: functional
[17] = Cytotoxicity against mouse TM3 cells assessed as reduction in cell viability measured after 24 hrs by sulforhodamine B assay; type: cell-based
[18] = Cytotoxicity against human HAF cells assessed as reduction in cell viability measured after 24 hrs by sulforhodamine B assay; type: cell-based
[19] = Cytotoxicity against human L02 cells assessed as reduction in cell viability measured after 24 hrs by sulforhodamine B assay; type: cell-based
[20] = Cytotoxicity against mouse NIH/3T3 cells assessed as reduction in cell viability measured after 24 hrs by sulforhodamine B assay; type: cell-based, NIH3T3
TM3 [21] = assay: Induction of testosterone production in mouse TM3 cells assessed as increase in StAR mRNA expression level after 24 hrs by qRT-PCR analysis; type: functional, cell-based
TM3 [22] = assay: Induction of testosterone production in mouse TM3 cells assessed as increase in 3beta-HSD mRNA expression level after 24 hrs by qRT-PCR analysis; type: functional, cell-based
[23] = Toxicity in cyclophosphamide - induced Sprague-Dawley rat model of partial androgen deficiency assessed as effect on liver at 50 to 100 mg/kg by HE staining based histopathological analysis; type: organism-based; settings: in vivo
[24] = Toxicity in cyclophosphamide - induced Sprague-Dawley rat model of partial androgen deficiency assessed as effect on spleen at 50 to 100 mg/kg by HE staining based histopathological analysis; type: organism-based; settings: in vivo
[25] = Toxicity in cyclophosphamide - induced Sprague-Dawley rat model of partial androgen deficiency assessed as effect on lung at 50 to 100 mg/kg by HE staining based histopathological analysis; type: organism-based; settings: in vivo
[26] = Toxicity in cyclophosphamide - induced Sprague-Dawley rat model of partial androgen deficiency assessed as sperm viability at 50 mg/kg by semen analysis (reference value: 95.1 +/- 3.2 %); type: organism-based; settings: in vivo
[27] = Toxicity in cyclophosphamide - induced Sprague-Dawley rat model of partial androgen deficiency assessed as sperm motility at 50 mg/kg by semen analysis (reference value: 88.3 +/- 7.3 %); type: organism-based; settings: in vivo
Rattus norvegicus [28] = assay: Anti late-onset hypogonadism activity in cyclophosphamide-induced Sprague-Dawley rat model of partial androgen deficiency assessed as increase in 3 beta- HSD mRNA level at 100 mg/kg by RT-PCR analysis; type: functional, organism-based
[29] = Cmax in Sprague-Dawley rat plasma at 50 mg/kg, po up to 12 hrs by LC/MS analysis; type: ADME, organism-based; design: dose 50 mg/kg, route oral
[30] = Initial plasma concentration in Sprague-Dawley rat plasma at 5 mg/kg, iv by LC/MS analysis; type: ADME, organism-based
[31] = Half-life in Sprague-Dawley rat plasma at 5 mg/kg, iv up to 5 hrs by LC/MS analysis; type: ADME, organism-based
[32] = AUC (0 to t) in Sprague-Dawley rat plasma at 5 mg/kg, iv up to 5 hrs by LC/MS analysis; type: ADME, organism-based; design: time < 5 hr, dose 5 mg/kg, route intravenous
[33] = AUC (0 to infinity) in Sprague-Dawley rat plasma at 5 mg/kg, iv by LC/MS analysis; type: ADME, organism-based; design: dose 5 mg/kg, route intravenous, time infinity
[34] = Volume of distribution in Sprague-Dawley rat plasma at 50 mg/kg, po up to 12 hrs by LC/MS analysis; type: ADME, organism-based; settings: in vivo
[35] = Volume of distribution in Sprague-Dawley rat plasma at 5 mg/kg, iv up to 5 hrs by LC/MS analysis; type: ADME, organism-based
[36] = Clearance in Sprague-Dawley rat at 5 mg/kg, iv up to 5 hrs by LC/MS analysis; type: ADME, organism-based; settings: in vivo
[37] = Oral bioavailability in Sprague-Dawley rat at 50 mg/kg by LC/MS analysis; type: ADME, organism-based; settings: in vivo
Rattus norvegicus [38] = assay: Anti late-onset hypogonadism activity in cyclophosphamide-induced Sprague-Dawley rat model of partial androgen deficiency assessed as increase in serum total testosterone level at 50 to 100 mg/kg, po qd administered for 4 weeks and measured every 2 weeks by ELISA; type: functional, organism-based

SMILES: CNC(=O)c1cc2c(cc1OC)[C@@]1(C)Cc3cnc(C)nc3C(C)(C)C1CC2 (mixture of isomers)
- Activity (Rattus norvegicus [1]): 185.58 nmol/L
- Activity (Rattus norvegicus [2]): 180.24 nmol/L
- half-life [3]: 4.44 h
- Activity [4]: Toxic
- Activity (Rattus norvegicus [5]): Active
- inhibition (Rattus norvegicus [6]): Active
- Activity [7]: Non-Toxic
- Activity (Rattus norvegicus [8]): Active
- Activity (Rattus norvegicus [9]): 1.68 g
- Activity (Rattus norvegicus [10]): 1.53 g
- Activity (Rattus norvegicus [11]): 1.54 g
- Activity (TM3 [12]): Active
- Activity (TM3 [13]): Active
- Activity (TM3 [14]): Active
- AUC(0-t) at 12 h [15]: 3050 ng·h/mL
- Activity (TM3 [16]): 174.6%
- CC50 at 24 h [17]: > 200 µM
- CC50 at 24 h [18]: > 200 µM
- CC50 at 24 h [19]: > 200 µM
- CC50 at 24 h [20]: > 200 µM
- Activity (TM3 [21]): Dose-dependent effect
- Activity (TM3 [22]): Dose-dependent effect
- Activity [23]: Non-Toxic
- Activity [24]: Non-Toxic
- Activity [25]: Non-Toxic
- Activity [26]: 96.5%
- Activity [27]: 92.6%
- Activity (Rattus norvegicus [28]): Active
- Cmax [29]: 239 ng/mL
- C0 [30]: 279 ng/mL
- half-life [31]: 7.59 h
- AUC(0-t) at 5 h [32]: 453 ng·h/mL
- AUC(0-inf) [33]: 551 ng·h/mL
- Vd [34]: 106.27 L/kg
- Vd [35]: 103 L/kg
- clearance [36]: 155 mL/min/kg
- bioavailability [37]: 57%
- Activity (Rattus norvegicus [38]): Active
